Measurements taken from PMC7096398, “Oxytocin Receptors Regulate Social Preference in Zebrafish” (Scientific Reports, 2020).
Values joined by “and” are separate entries in the source; they are usually repeats but may differ in a detail not shown here. Equal values may be shown once. Read-outs that look alike come from different tables or passages of the source. Positions of bridges follow the written chain, without caps; N, C: chain ends. Residues, ends and D or L forms follow the SMILES beside them.

Tests used:
zebrafish = system: zebrafish; parameters: method as in 4 sources, ref 42 = [42]; PMID 21956239; doi:10.1007/s00213-011-2482-2; 42. Braida D Neurohypophyseal hormones manipulation modulate social and anxiety-related behavior in zebrafish Psychopharmacology (Berl) 2012 220 319 330 10.1007/s00213-011-2482-2 21956239 ||| ref 44 = [44]; PMID 27247142; doi:10.1016/j.bbr.2016.05.059; 44. Zimmermann FF Gaspary KV Siebel AM Bonan CD Oxytocin reversed MK-801-induced social interaction and aggression deficits in zebrafish Behav Brain Res 2016 311 368 374 10.1016/j.bbr.2016.05.059 2724 ||| ref 51 = [51]; doi:10.1163/1568539x-00003261; 51. Lindeyer CM Langen EMA Swaney WT Reader SM Nonapeptide influences on social behaviour: effects of vasotocin and isotocin on shoaling and interaction in zebrafish Behaviour 2015 152 897 915 10.1163 ||| ref 27 = [27]; PMID 26347614; doi:10.3389/fncir.2015.00039; 27. Dreosti E Lopes G Kampff AR Wilson SW Development of social behavior in young zebrafish Front Neural Circuits 2015 9 39 10.3389/fncir.2015.00039 26347614 PMC4539524; conditions: cited from earlier work
From the text: Thus far, dopamine[56] and serotonin[57] in the mesolimbic system and excitation-inhibition balance[58] seem to play a prominent role in social investigation in rodents. Similarly, levels of dopamine and serotonin are modulated in socially interacting fish[59]–[61] and social preference behaviour decreases after treatment with a dopamine D1 receptor antagonist. […] In rodents, release of ... || (+ 1 further places)

Oxtrl = target: T1, Oxtrl (Danio rerio, UniProt E4W698); test: Inositol phosphate accumulation assay, agonist potency at Oxtrl; assay type: cell-based, zebrafish
T1 construct: host or cells: HEK293
T1 sequence (E4W698 1-382): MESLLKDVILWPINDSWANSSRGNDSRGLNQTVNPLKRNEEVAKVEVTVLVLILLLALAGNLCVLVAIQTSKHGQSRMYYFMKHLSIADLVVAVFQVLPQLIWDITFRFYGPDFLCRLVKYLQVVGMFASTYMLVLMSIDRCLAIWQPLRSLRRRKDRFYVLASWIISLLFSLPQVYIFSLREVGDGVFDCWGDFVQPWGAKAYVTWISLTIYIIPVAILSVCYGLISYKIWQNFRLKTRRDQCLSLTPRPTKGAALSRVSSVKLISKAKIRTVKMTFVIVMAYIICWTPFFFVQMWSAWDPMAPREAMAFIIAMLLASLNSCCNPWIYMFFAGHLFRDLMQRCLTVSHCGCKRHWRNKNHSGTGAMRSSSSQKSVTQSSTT
Description: (§1) The receptor constructs were ordered from GeneScript and subcloned into a pcDNA3.1/CT-GFP-TOPO vector. The coding sequences of the GenBank entries NM_001199370.1 (oxtr), NM_001199369.1 (oxtrl), NM_001301114.1 (avpr1aa), and NM_001297676.1 (avpr1ab) were used for synthesis. The stop codons were removed, and an additional […] was added to facilitate hybrid protein expression with GFP in frame from the vector. The GCCACC Kozak sequence was inserted before the start codons. After transformation of the plasmid constructs into TOP10 competent cells (Thermo Fisher Scientific), the Maxiprep (Thermo Fisher Scientific) method was used to amplify the plasmids for transfection.
(§2) The Inositol phosphate accumulation assay was performed according to previous descriptions to measure the potency of different ligands for zebrafish different oxytocin related receptors. Each receptor construct was transfected into HEK293 cells using Lipofectamine 2000 (Thermo Fisher Scientific). Myo2-^3H-inositol (PerkinElmer) at 3 μCi/mL was added the day after transfection. On day three, cells were re-suspended in assay buffer (10 mM LiCl, 20 mM HEPES, 137 mM NaCl, 5 mM KCl, 0.44 mM KH2PO4, 4.2 mM NaHCO3, 1.2 mM MgCl2, 1 mM CaCl2, and 10 mM glucose), after incubation in a PBS/EDTA mixture (0.2 g/L). After 10 minutes of pre-incubation at 37 °C, the cells were stimulated with serial dilution of peptides for 25 minutes at 37 °C. […] Cells were lysed for 60 minutes at 4 °C with an equal volume of 0.8 M perchloric acid, and then neutralised with KOH/KHCO3 solution. Ion exchange chromatography on AG 1-X8 resin (Bio-Rad) was used to collect the generated ^3H-inositol phosphates. The resin was washed with buffer containing 5 mM Na2B4O7 and 60 mM NH4-formate and eluted with buffer containing 1 M NH4-formate and 0.1 M formic acid. Samples were mixed with OptiPhase HiSafe (PerkinElmer Waltham, MA, USA) and ^3H radioactivity was measured with a Tri-Carb 2910TR liquid scintillation counter (PerkinElmer Waltham, MA, USA). The assays were performed in duplicate for each concentration and repeated at least 3 times.

Oxtr = target: T2, Oxtr (Danio rerio, UniProt E4W699); test: Inositol phosphate accumulation assay, agonist potency at Oxtr; assay type: cell-based, zebrafish
T2 construct: host or cells: HEK293
T2 sequence (E4W699 1-388): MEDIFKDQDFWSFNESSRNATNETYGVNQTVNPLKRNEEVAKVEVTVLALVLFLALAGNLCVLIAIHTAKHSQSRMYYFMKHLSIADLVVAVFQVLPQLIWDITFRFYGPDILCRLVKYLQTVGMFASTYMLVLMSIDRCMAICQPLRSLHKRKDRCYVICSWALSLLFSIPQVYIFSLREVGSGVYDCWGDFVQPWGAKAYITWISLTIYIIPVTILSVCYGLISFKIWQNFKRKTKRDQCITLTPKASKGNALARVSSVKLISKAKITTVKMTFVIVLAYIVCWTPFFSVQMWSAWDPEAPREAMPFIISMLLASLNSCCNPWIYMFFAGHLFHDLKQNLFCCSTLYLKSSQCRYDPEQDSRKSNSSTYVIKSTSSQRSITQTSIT
Description: as §1, §2

Avpr1aa = target: T3, Avpr1aa (Danio rerio, UniProt A0A8M1P1H3); test: Inositol phosphate accumulation assay, agonist potency at Avpr1aa; assay type: cell-based, zebrafish
T3 sequence (A0A8M1P1H3 1-379): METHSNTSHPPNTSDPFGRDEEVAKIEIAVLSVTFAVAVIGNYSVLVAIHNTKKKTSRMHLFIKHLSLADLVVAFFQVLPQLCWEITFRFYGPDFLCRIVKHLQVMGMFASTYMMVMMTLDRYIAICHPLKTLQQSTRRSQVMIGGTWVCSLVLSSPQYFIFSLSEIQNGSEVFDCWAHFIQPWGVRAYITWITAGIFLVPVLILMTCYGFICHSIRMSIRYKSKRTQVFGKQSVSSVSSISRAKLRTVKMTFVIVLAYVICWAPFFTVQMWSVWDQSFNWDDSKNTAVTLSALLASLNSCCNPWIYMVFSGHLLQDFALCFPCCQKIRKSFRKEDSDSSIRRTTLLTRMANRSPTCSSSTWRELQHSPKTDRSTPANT
Description: as §1, §2

Avpr1ab = target: T4, Avpr1ab (Danio rerio, UniProt A0A8M1P6E3); test: Inositol phosphate accumulation assay, agonist potency at Avpr1ab; assay type: cell-based, zebrafish
T4 sequence (A0A8M1P6E3 1-410): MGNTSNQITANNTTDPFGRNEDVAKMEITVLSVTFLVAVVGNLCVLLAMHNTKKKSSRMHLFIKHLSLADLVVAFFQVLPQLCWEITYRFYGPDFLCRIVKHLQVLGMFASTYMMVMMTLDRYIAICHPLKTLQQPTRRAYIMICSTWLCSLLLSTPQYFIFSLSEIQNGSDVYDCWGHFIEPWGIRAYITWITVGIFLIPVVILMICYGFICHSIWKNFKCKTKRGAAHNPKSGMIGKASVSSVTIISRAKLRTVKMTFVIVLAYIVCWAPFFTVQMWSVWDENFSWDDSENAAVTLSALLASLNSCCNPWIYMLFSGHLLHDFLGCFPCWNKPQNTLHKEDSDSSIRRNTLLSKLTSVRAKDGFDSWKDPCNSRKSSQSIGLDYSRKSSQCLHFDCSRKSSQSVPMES
Description: as §1, §2

[1] = read-out: Potency (EC50) at Oxtrl
[2] = HEK293 cells transfected with zebrafish Avpr1aa, 3H-inositol phosphate accumulation, 10 min pre-incubation, 25 min stimulation, 37 °C, duplicates, table: mean ± SEM, n = 3 (zOT n = 4), read-out: Potency (EC50) at Avpr1aa
[3] = HEK293 cells transfected with zebrafish Avpr1ab, 3H-inositol phosphate accumulation, 10 min pre-incubation, 25 min stimulation, 37 °C, duplicates, table: mean ± SEM, n = 3, read-out: Potency (EC50) at Avpr1ab

Row | Compound | EC50 (Oxtrl; [1]) | EC50 (Oxtr) | EC50 (Avpr1aa; [2]) | EC50 (Avpr1ab; [3]) | further results
1 | C[C@]12N[C@H](Cc3ccccc31)c1ccccc12 [MK-801] |  |  |  |  | Social preference deficits (zebrafish; zebrafish): deficits in social preference induced
2 | CC[C@H](C)[C@@H]1NC(=O)[C@H](Cc2ccc(O)cc2)NC(=O)[C@@H](N)CSSC[C@@H](C(=O)N2CCC[C@H]2C(=O)N[C@@H](CC(C)C)C(=O)NCC(N)=O)NC(=O)[C@H](CC(N)=O)NC(=O)[C@H](CCC(N)=O)NC1=O [OT] | 20 to 50 nM and 34.8 nM | 20 to 50 nM and 47.9 nM | 20 to 50 nM and 21.5 nM | 20 to 50 nM and 42.1 nM | 
3 | CCO [ethanol] |  |  |  |  | Social preference, developing zebrafish (zebrafish; high concentrations): inhibit social preference
4 | CC[C@H](C)[C@@H]1NC(=O)[C@H](Cc2ccc(O)cc2)NC(=O)[C@@H](N)CSSC[C@@H](C(=O)N2CCC[C@H]2C(=O)N[C@H](C(=O)NCC(N)=O)[C@@H](C)CC)NC(=O)[C@H](CC(N)=O)NC(=O)[C@H](CO)NC1=O [zOT] (H-CYISNCPIG-NH2; disulfide 1-6) | 3.14 ± 1.1 nM |  | 317 ± 79 nM | 3.52 ± 0.94 nM | EC50 (Oxtr; HEK293 cells transfected with zebrafish Oxtr, 3H-inositol phosphate accumulation, 10 min pre-incubation, 25 min stimulation, 37 °C, duplicates, table: mean ± SEM, n = 3, read-out: Potency (EC50) at Oxtr): 2.99 ± 0.93 nM
5 | CC[C@H](C)[C@@H]1NC(=O)[C@H](Cc2ccc(O)cc2)NC(=O)[C@@H](N)CSSC[C@@H](C(=O)N2CCC[C@H]2C(=O)N[C@@H](CCCNC(=N)N)C(=O)NCC(N)=O)NC(=O)[C@H](CC(N)=O)NC(=O)[C@H](CCC(N)=O)NC1=O [zVP] (H-CYIQNCPRG-NH2; disulfide 1-6) |  | 11 ± 3 nM |  |  | EC50 (Oxtrl): 27 ± 9.5 nM; EC50 (Avpr1aa): > 317 nM and 727 nM; EC50 (Avpr1ab): 2.79 ± 1.4 nM
6 | carbetocin |  |  |  |  | Social deficits following MK-801 exposure (zebrafish; zebrafish exposed to glutamate antagonist MK-801): rescued social deficits
